Assay results: patent publication EP4603105A1, “PHARMACEUTICAL COMPOSITION CONTAINING CYCLIC COMPOUND HAVING SELECTIVE KRAS INHIBITORY EFFECT AGAINST HRAS AND NRAS” (CHUGAI SEIYAKU KABUSHIKI KAISHA, priority 2022, dated 2024)
Where a SMILES comes first, the peptide text is derived from it. Bridges are numbered along the chain shown (N, C = ends). [ ]: non-standard residue; d: D form. The star is where a group is joined. hPhe(3-Cl-4-CF3) = N[C@@H](CCc1ccc(C(F)(F)F)c(Cl)c1)C(=O)O; NMePhe(4-Me) = CN[C@@H](Cc1ccc(C)cc1)C(=O)O; NMeGly(cPent) = CN[C@H](C(=O)O)C1CCCC1; NMeD = CN[C@@H](CC(=O)O)C(=O)O; NMeL = CN[C@@H](CC(C)C)C(=O)O; Morpholide = C1CN(*)CCO1; Ac5c = NC1(C(=O)O)CCCC1; Sar = CNCC(=O)O

Key:
[1] = target: GDP-bound NRAS wild-type protein (Homo sapiens, UniProt P01111); assay: Binding to NRAS by surface plasmon resonance (SPR), KD and KD ratio to KRAS
Chain of GDP-bound NRAS wild-type protein (P01111 whole entry): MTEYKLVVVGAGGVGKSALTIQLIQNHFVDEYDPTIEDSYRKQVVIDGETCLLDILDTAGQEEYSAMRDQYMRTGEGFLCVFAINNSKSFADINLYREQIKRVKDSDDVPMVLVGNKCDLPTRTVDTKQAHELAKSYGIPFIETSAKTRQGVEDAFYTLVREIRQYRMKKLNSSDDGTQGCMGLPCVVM
Outline: (§1)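 Captured GDP-RAS (~100–300 RU) was exposed to increasing compound concentrations, 75 s per step, in running buffer with 10 µM GDP, 10 mM MgCl2 and 4% DMSO at pH 7.4.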

HRAS wild-type protein = HRAS wild-type protein (Homo sapiens, UniProt P01112); assay: Binding to HRAS by surface plasmon resonance (SPR), KD and KD ratio to KRAS
Chain of HRAS wild-type protein (P01112 whole entry): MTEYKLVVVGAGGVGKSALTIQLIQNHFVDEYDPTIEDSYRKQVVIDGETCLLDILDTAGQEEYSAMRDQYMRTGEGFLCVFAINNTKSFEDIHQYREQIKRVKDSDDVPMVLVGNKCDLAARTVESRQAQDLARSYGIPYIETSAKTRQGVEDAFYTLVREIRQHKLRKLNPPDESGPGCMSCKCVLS
Outline: as §1

[2] = system: human lung cancer strain NCI-H441; format: cell-based
Outline: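 Step one: dispense the test compound in serial DMSO dilutions. Step three: add the reagent and measure […].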

[3] = ratio of the KD value with respect to GDP-bound NRAS wild-type protein to the KD value with respect to KRAS
[4] = ratio of the KD value with respect to HRAS wild-type protein to the KD value with respect to KRAS
[5] = ratio of KD for GDP-bound NRAS wild-type protein to KD for KRAS
[6] = ratio of KD for HRAS wild-type protein to KD for KRAS

Compound	IC50 [2] [nM]	NRAS /KRAS [1, 3]	HRAS /KRAS (HRAS wild-type protein; [4])	NRAS /KRAS [1, 5]	HRAS /KRAS (HRAS wild-type protein; [6])
CCO[C@@H]1C[C@H]2C(=O)N(C)C3(CCC3)C(=O)N(C)[C@@H](C(CC)CC)C(=O)N(C)[C@H](C(=O)N(C)C)CC(=O)N(C)[C@@H](COC)C(=O)N[C@@H]([C@@H](C)CC)C(=O)N(C)CC(=O)N(C)[C@H]3C/C=C\CCN(C3=O)[C@@H](CC3CCCCC3)C(=O)N(C)CC(=O)N[C@@H](CCc3ccc(C(F)(F)F)c(OC)c3)C(=O)N2C1 [PP2335]	64.2	A (a compound having 10 or more and less than 20 is denoted as A)	A (a compound having 10 or more and less than 20 is denoted as A)		
CC[C@H](C)[C@@H]1NC(=O)[C@H](CC(C)C)N(C)C(=O)C[C@@H](C(=O)N2CCOCC2)N(C)C(=O)[C@H](C2CCCC2)NC(=O)C2(CCCC2)NC(=O)[C@@H]2CCCN2C(=O)[C@H](CCc2cc(F)c(C(F)(F)F)c(F)c2)NC(=O)CN(C)C(=O)[C@H](Cc2ccc(C(F)(F)F)cc2)N2CCCC[C@@H](C2=O)N(C)C(=O)CN(C)C1=O [PP0540]	766	B (a compound having 3 or more and less than 10 is denoted as B)	B (a compound having 3 or more and less than 10 is denoted as B)		
CCC[C@H]1C(=O)N[C@@H]([C@@H](C)CC)C(=O)N(C2CC2)CC(=O)N(C)[C@H]2C/C=C\CCN(C2=O)[C@@H](Cc2ccc(C(F)(F)F)cc2)C(=O)N(C)CC(=O)N[C@@H](CCc2cc(F)c(C(F)(F)F)c(F)c2)C(=O)N2C[C@H](OCC)C[C@H]2C(=O)N(C)C2(CCC2)C(=O)N(C)[C@@H](C2CCCC2)C(=O)N(C)[C@H](C(=O)N2CCCCC2)CC(=O)N1C [PP3110]	69.9			A (a compound having 10 or more and less than 20 is denoted as A)	A (a compound having 10 or more and less than 20 is denoted as A)
CCO[C@@H]1C[C@H]2C(=O)NC3(CCC3)C(=O)N(C)[C@@H](C3CCCC3)C(=O)N(CC)[C@H](C(=O)N3CCOCC3)CC(=O)N(C)[C@@H](CCOC)C(=O)N[C@@H]([C@@H](C)CC)C(=O)N(C)CC(=O)N(C)[C@H]3CCCCCN(C3=O)[C@@H](Cc3ccc(C(F)(F)F)cc3)C(=O)N(C)CC(=O)N[C@@H](CCc3cc(F)c(C(F)(F)F)c(F)c3)C(=O)N2C1 [PP0947]	597			A (a compound having 10 or more and less than 20 is denoted as A)	A (a compound having 10 or more and less than 20 is denoted as A)

These reach a lower IC50 [2]. Values come first.

IC50 [2] [nM]	Compound	NRAS /KRAS [1, 3]	HRAS /KRAS (HRAS wild-type protein; [4])	NRAS /KRAS [1, 5]	HRAS /KRAS (HRAS wild-type protein; [6])
7	CC[C@H](C)[C@@H]1NC(=O)[C@H](CC(C)C)N(C)C(=O)C[C@@H](C(=O)N2CCOCC2)N(C)C(=O)[C@H](C2CCCC2)N(C)C(=O)C2(CCCC2)NC(=O)[C@@H]2CCCN2C(=O)[C@H](CCc2ccc(C(F)(F)F)c(Cl)c2)NC(=O)CN(C)C(=O)[C@H](Cc2ccc(C)cc2)N(C)C(=O)CN(C)C(=O)CN(C)C1=O [PP0018] ([NMeL]I[Sar][Sar][NMePhe(4-Me)][Sar][hPhe(3-Cl-4-CF3)]P[Ac5c][NMeGly(cPent)][NMeD]-Morpholide; lactam N-11)			C (A compound having a KD ratio of 0.1 or more and less than 3 is denoted as C)	C (A compound having a KD ratio of 0.1 or more and less than 3 is denoted as C)
18.4	CCO[C@@H]1C[C@H]2C(=O)NC3(CC(C)(C)C3)C(=O)N(C)[C@@H](C(CC)CC)C(=O)N(C)[C@H](C(=O)N(C)C)CC(=O)N(C)[C@@H](CC(C)C)C(=O)N[C@@H]([C@@H](C)CC)C(=O)N(C)CC(=O)N(C)[C@H]3C/C=C\CCN(C3=O)[C@@H](Cc3ccc(C(F)(F)F)cc3)C(=O)N(C)CC(=O)N[C@@H](CCc3ccc(C(F)(F)F)c(Cl)c3)C(=O)N2C1 [PP2132]	AA (a compound having 20 or more is denoted as AA)	A (a compound having 10 or more and less than 20 is denoted as A)		
3.6	CCO[C@@H]1C[C@H]2C(=O)NC3(CC(C)(C)C3)C(=O)N(C)[C@@H](C3CCCC3)C(=O)N(C)[C@H](C(=O)N(C)C)CC(=O)N(C)[C@@H](CC)C(=O)N[C@@H]([C@@H](C)CC)C(=O)N(C)CC(=O)N(C)[C@H]3C/C=C\CCN(C3=O)[C@@H](Cc3ccc(Cl)cc3F)C(=O)N(C)CC(=O)N[C@@H](CCc3cc(F)c(C(F)(F)F)c(F)c3)C(=O)N2C1 [PP2048]	A (a compound having 10 or more and less than 20 is denoted as A)	B (a compound having 3 or more and less than 10 is denoted as B)		
